According to US6849576B2, “Plant-activating agent” (Kao Corporation, priority 2000, dated 2005):

tested on: liverwort callus cells; experiment: Reproduction of green cells: liverwort callus cultivation, fresh weight at 10th day; type: cell-based, liverwort (Harchantia polymorpha L.); settings: liverwort callus fresh weight at 10th day (240 hours); relative value, control area = 100; concentrations (ppm) as in Table 7
Protocol: (§1) In case of a unicellular organism, an individual of this organism can be used itself as a green cell. […] When chlorella is used, a test substance acting as a plant-activating agent is added to an inorganic salt medium for chlorella (test area), and the number of cells (cells/ml) when cultivation is conducted for a certain period can be compared with the number of cells (cells/ml) in the non-added system cultivated under the same condition (control area), for calculation. Further, cells in the form of callus can also be used. As the callus, a liverwort (Harchantia polymorpha L.) callus may be exemplified. When a callus is used, the test substance acting as a plant-activating agent is added to e.g. a sterilized medium for calluses (test area), and the weight of callus when cultivation is conducted for a certain period can be compared with the weight of callus of the non-added system cultivated under the same condition (control area), for calculation. In any case, the concentration of the test substance in the test area is not limited but suitably from 0.1 to 1000 ppm in terms of effective components.
100 ml of the medium (MSK2 medium) for liverworts were placed into a 500-ml Erlenmeyer flask, and the flask was capped with a silicon cap having its ventilative property and placed into an autoclave (at a high temperature, under a high pressure, and a sterilized oven) to sterilize the medium (for 20 minutes). Herein, the substance acting as the plant-activating agent was added in a concentration shown in Table 7 into a culturing solution in the test area. After sterilization, the temperature of the medium was returned to a normal temperature. 2 ml of liverwort callus cells under a steady state, which had been sub-cultivated previously, were sucked up by a 2-ml Komagome pipette (measuring pipet) and incubated to the sterilized medium. These operations are conducted in a clean bench when sterilized condition is necessary. Cultivation is carried out in a shaking incubator rotating at 110 rpm at 23° C. under continuous illumination (with illuminance of 10 klx.) with carbon dioxide and humidity under natural conditions. Tenth day (after 240 hours) after starting the cultivation, the whole culturing solution in each area was filtrated under suction, and the fresh weight (raw weight) (g) of the callus cell was measured. This was made as the amount in reproduction of green cells, and the improved degree in reproduction of green cells was measured by the above-described formula.

| Molecule | Improved degree in reproduction of green cells |
| --- | --- |
| CCCCCCCCCCCCCCCCCCO [Inventive product 5-5, Stearyl alcohol] | 140 |
| CCCCCCCC/C=C\CCCCCCCCNC(=O)CC(O)(CC(=O)O)C(=O)O (stereo not drawn) [Inventive product 5-8, Citric acid oleyl amide] | 125 |
| CCCCCCCCCCCCCCCCCCOCCCCCCCCCCCCCCCCCC [Inventive product 5-9, Distearyl ether] | 135 |
| CCCCCCCCCCCCCCCCCCOC(=O)CCCCCCCCCCCCCCCCC [Inventive product 5-10, Stearyl sterate] | 125 |
| CCCCCCCCCCCCCCCCCC(=O)OCC(CO)(CO)CO [Inventive product 5-14, Pentaerythritol monostearate] | 108 |
| CCCCCCCCCCCCCCCCCCOC(=O)C(O)CO (stereo not drawn) [Inventive product 5-17, Glyceric acid stearyl ester] | 108 |
| Cc1ncc(CO)c(CO)c1O [Inventive product 5-18, Vitamin B6] | 107 |
| CC(C)C[C@H](N)C(=O)O [Inventive product 5-20, L-leucine] | 110 |
| O=C(O)C(O)C(O)C(=O)O (stereo not drawn) [Inventive product 5-21, Tartaric acid] | 110 |
| O=C(O)CCCC[C@@H]1SC[C@@H]2NC(=O)N[C@@H]21 [Inventive product 5-24, Biotin] | 106 |
| Citric acid monostearate [Inventive product 5-7] | 135 |
| POE(1) stearyl ether [Inventive product 5-11] | 133 |
| POE(20) sorbitan oleate [Comparative product 5-1, reference compound] | 72 |
| Stearic acid diglyceride [Inventive product 5-13] | 126 |
| Stearic acid monoglyceride [Inventive product 5-23] | 118 |
| Vitamin B12 [Inventive product 5-19] | 108 |

tested on: Chlorella vulgaris; experiment: Reproduction of green cells: chlorella cultivation, cell count at 8th day; type: cell-based; settings: chlorella cell number at 8th day (192 hours); relative value, control area = 100; concentrations (ppm) as in Table 1
Protocol: as §1
Herein, the substance acting as the plant-activating agent has been added in a concentration of 10 ppm in terms of effective components into a culturing solution in the test area. This substance is not added into the control area. After sterilization, the temperature of the medium is returned to a normal temperature. The number of Chlorella vulgaris which has been sub-cultivated previously is counted under a microscope using a blood cell counting chamber of Thoma, and chlorella is added to the sterilized medium so as to have a concentration of 1.0×10^5 (cells/ml). These operations are conducted in a clean bench when the sterilized condition is necessary. Cultivation is carried out in a shaking incubator rotating at 110 rpm at 23° C. under continuous illumination (with illuminance of 10 klx.) with carbon dioxide and humidity under natural conditions.
This measurement is repeated five times in each area, and the average values (P0, P1) are made as the number of chlorella after cultivation.

| Molecule | Improved degree in reproduction of green cells |
| --- | --- |
| O=C([O-])CCC(=O)[O-].[Na+].[Na+] [Comparative product 1-2, Sodium succinate, reference compound] | 90 |
| O=C([O-])CN(CCN(CC(=O)[O-])CC(=O)[O-])CC(=O)[O-].[Na+].[Na+].[Na+].[Na+] [Comparative product 1-3, EDTA-4Na, reference compound] | 92 |
| Cc1ncc(CO)c(CO)c1O [Inventive product 1-18, Vitamin B6] | 118 |
| Citric acid monooleyl axnide [Inventive product 1-8] | 148 |
| POE(1) stearyl ether [Inventive product 1-11] | 160 |
| POE(20) sorbitan oleate [Comparative product 1-1, reference compound] | 85 |
| Stearic acid diglyceride [Inventive product 1-13] | 140 |
| Stearic acid monoglyceride [Inventive product 1-23] | 140 |
| Vitamin B12 [Inventive product 1-19] | 110 |

same assay, conditions: chlorella cell number at 8th day (192 hours); relative value, control area = 100; concentrations (ppm) as in Table 2

| Molecule | Improved degree in reproduction of green cells |
| --- | --- |
| O=C([O-])CCC(=O)[O-].[Na+].[Na+] [Comparative product 2-2, Sodium succinate, reference compound] | 92 |
| O=C([O-])CN(CCN(CC(=O)[O-])CC(=O)[O-])CC(=O)[O-].[Na+].[Na+].[Na+].[Na+] [Comparative product 2-3, EDTA-4Na, reference compound] | 90 |
| CCCCCCCCCCCCCCCCCC(=O)O [Inventive product 2-1, Stearyl acid] | 156 |
| Cc1ncc(CO)c(CO)c1O [Inventive product 2-16, Vitamin B6] | 122 |
| POE(1) stearyl ether [Inventive product 2-9] | 153 |
| POE(20) sorbitan oleate [Comparative product 2-1, reference compound] | 80 |
| Stearic acid diglyceride [Inventive product 2-11] | 136 |
| Vitamin B12 [Inventive product 2-17] | 118 |
